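48-hour exposure; five concentrations; linearly interpolated endpoints. Here, GI50 denotes the concentration required for 50% inhibition of growth. TGI marks complete inhibition of growth.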
Experiments:
Assay in all cases: DTP human tumour cell line panel, 48 h
HOP-92 NSCLC = test system: HOP-92 NSCLC
SK-MEL-5 melanoma = test system: SK-MEL-5 melanoma
OVCAR-3 ovarian = test system: OVCAR-3 ovarian
SW-620 colon = test system: SW-620 colon
SF-295 CNS = test system: SF-295 CNS
KM12 colon = test system: KM12 colon
ACHN renal = test system: ACHN renal
UO-31 renal = test system: UO-31 renal
COLO 205 colon = test system: COLO 205 colon
IGROV1 ovarian = test system: IGROV1 ovarian
PC-3 prostate = test system: PC-3 prostate
HCC-2998 colon = test system: HCC-2998 colon
HCT-116 colon = test system: HCT-116 colon
OVCAR-4 ovarian = test system: OVCAR-4 ovarian
HOP-62 NSCLC = test system: HOP-62 NSCLC
T-47D breast = test system: T-47D breast
MCF7 breast = test system: MCF7 breast
HCT-15 colon = test system: HCT-15 colon
RXF 393 renal = test system: RXF 393 renal
NCI-H460 lung = test system: NCI-H460 lung
HS 578T breast = test system: HS 578T breast
SF-539 CNS = test system: SF-539 CNS
SK-MEL-28 melanoma = test system: SK-MEL-28 melanoma
MALME-3M melanoma = test system: MALME-3M melanoma
K-562 leukemia = test system: K-562 leukemia
UACC-257 melanoma = test system: UACC-257 melanoma
MDA-MB-231 breast = test system: MDA-MB-231 breast
CCRF-CEM leukemia = test system: CCRF-CEM leukemia
RPMI-8226 leukemia = test system: RPMI-8226 leukemia
CAKI-1 renal = test system: CAKI-1 renal
LOX IMVI melanoma = test system: LOX IMVI melanoma
HL-60(TB) leukemia = test system: HL-60(TB) leukemia
SN12C renal = test system: SN12C renal
SF-268 CNS = test system: SF-268 CNS
HT29 colon = test system: HT29 colon
DU-145 prostate = test system: DU-145 prostate
NCI/ADR-RES ovarian = test system: NCI/ADR-RES ovarian
SNB-75 CNS = test system: SNB-75 CNS
SNB-19 CNS = test system: SNB-19 CNS
MDA-MB-435 = test system: MDA-MB-435
A498 renal = test system: A498 renal
MOLT-4 leukemia = test system: MOLT-4 leukemia
UACC-62 melanoma = test system: UACC-62 melanoma
NCI-H522 lung = test system: NCI-H522 lung
TK-10 renal = test system: TK-10 renal
NCI-H23 lung = test system: NCI-H23 lung
NCI-H226 lung = test system: NCI-H226 lung
SR leukemia = test system: SR leukemia
OVCAR-5 ovarian = test system: OVCAR-5 ovarian
BT-549 breast = test system: BT-549 breast
M14 melanoma = test system: M14 melanoma
786-0 renal = test system: 786-0 renal
A549 NSCLC = test system: A549 NSCLC
OVCAR-8 ovarian = test system: OVCAR-8 ovarian
SK-MEL-2 melanoma = test system: SK-MEL-2 melanoma
SK-OV-3 ovarian = test system: SK-OV-3 ovarian
U251 CNS = test system: U251 CNS

## COC(=O)[C@H](Cc1cn(C)cn1)NC(=O)[C@H](C)NC(=O)Nc1cc(C(F)(F)F)cc(C(F)(F)F)c1
HOP-92 NSCLC
  GI50: > 10 µM
  TGI: > 10 µM
SK-MEL-5 melanoma
  GI50: > 10 µM
  TGI: > 10 µM
OVCAR-3 ovarian
  GI50: > 10 µM
  TGI: > 10 µM
SW-620 colon
  GI50: > 10 µM
  TGI: > 10 µM
SF-295 CNS
  GI50: > 10 µM
  TGI: > 10 µM
KM12 colon
  GI50: > 10 µM
  TGI: > 10 µM
ACHN renal
  GI50: > 10 µM
  TGI: > 10 µM
UO-31 renal
  GI50: > 10 µM
  TGI: > 10 µM
COLO 205 colon
  GI50: > 10 µM
  TGI: > 10 µM
IGROV1 ovarian
  GI50: > 10 µM
  TGI: > 10 µM
PC-3 prostate
  GI50: > 10 µM
  TGI: > 10 µM
HCC-2998 colon
  GI50: > 10 µM
  TGI: > 10 µM
HCT-116 colon
  GI50: > 10 µM
  TGI: > 10 µM
OVCAR-4 ovarian
  GI50: > 10 µM
  TGI: > 10 µM
HOP-62 NSCLC
  GI50: > 10 µM
  TGI: > 10 µM
T-47D breast
  GI50: 7.58 µM
  TGI: > 10 µM
MCF7 breast
  GI50: > 10 µM
  TGI: > 10 µM
HCT-15 colon
  GI50: > 10 µM
  TGI: > 10 µM
RXF 393 renal
  GI50: > 10 µM
  TGI: > 10 µM
NCI-H460 lung
  GI50: > 10 µM
  TGI: > 10 µM
HS 578T breast
  GI50: > 10 µM
  TGI: > 10 µM
SF-539 CNS
  GI50: > 10 µM
  TGI: > 10 µM
SK-MEL-28 melanoma
  GI50: > 10 µM
  TGI: > 10 µM
MALME-3M melanoma
  GI50: > 10 µM
  TGI: > 10 µM
K-562 leukemia
  GI50: > 10 µM
  TGI: > 10 µM
UACC-257 melanoma
  GI50: > 10 µM
  TGI: > 10 µM
MDA-MB-231 breast
  GI50: > 10 µM
  TGI: > 10 µM
CCRF-CEM leukemia
  GI50: > 10 µM
  TGI: > 10 µM
RPMI-8226 leukemia
  GI50: > 10 µM
  TGI: > 10 µM
CAKI-1 renal
  GI50: > 10 µM
  TGI: > 10 µM
LOX IMVI melanoma
  GI50: > 10 µM
  TGI: > 10 µM
HL-60(TB) leukemia
  GI50: > 10 µM
  TGI: > 10 µM
SN12C renal
  GI50: > 10 µM
  TGI: > 10 µM
SF-268 CNS
  GI50: > 10 µM
  TGI: > 10 µM
HT29 colon
  GI50: > 10 µM
  TGI: > 10 µM
DU-145 prostate
  GI50: > 10 µM
  TGI: > 10 µM
NCI/ADR-RES ovarian
  GI50: > 10 µM
  TGI: > 10 µM
SNB-75 CNS
  GI50: > 10 µM
  TGI: > 10 µM
SNB-19 CNS
  GI50: > 10 µM
  TGI: > 10 µM
MDA-MB-435
  GI50: > 10 µM
  TGI: > 10 µM
A498 renal
  GI50: > 10 µM
  TGI: > 10 µM
MOLT-4 leukemia
  GI50: > 10 µM
  TGI: > 10 µM
UACC-62 melanoma
  GI50: > 10 µM
  TGI: > 10 µM
NCI-H522 lung
  GI50: > 10 µM
  TGI: > 10 µM
TK-10 renal
  GI50: > 10 µM
  TGI: > 10 µM
NCI-H23 lung
  GI50: > 10 µM
  TGI: > 10 µM
NCI-H226 lung
  GI50: > 10 µM
  TGI: > 10 µM
SR leukemia
  GI50: > 10 µM
  TGI: > 10 µM
OVCAR-5 ovarian
  GI50: > 10 µM
  TGI: > 10 µM
BT-549 breast
  GI50: > 10 µM
  TGI: > 10 µM
M14 melanoma
  GI50: > 10 µM
  TGI: > 10 µM
786-0 renal
  GI50: > 10 µM
  TGI: > 10 µM
A549 NSCLC
  GI50: > 10 µM
  TGI: > 10 µM
OVCAR-8 ovarian
  GI50: > 10 µM
  TGI: > 10 µM
SK-MEL-2 melanoma
  GI50: > 10 µM
  TGI: > 10 µM
SK-OV-3 ovarian
  GI50: > 10 µM
  TGI: > 10 µM
U251 CNS
  GI50: > 10 µM
  TGI: > 10 µM
